This is an account of results in patent US10894785B2, “Piperidine derivatives for use in the treatment of pancreatic cancer” (CENTRE HOSPITALIER UNIVERSITAIRE VAUDOIS CHUV, priority 2016, dated 2021).

Data set [1] concerns pancreatic ductal adenocarcinoma (Panc-1). The data set can be described thus: Anti-tumor activity on Panc-1: cell viability by sulforhodamine or MTT assay. The format is cell-based. The following applies: Homo sapiens, Panc-1 cells, 96 hours treatment, 0.001-1000 nM. Here is the method:
The compounds according to the present invention were evaluated for their anti-tumor activities on pancreatic ductal adenocarcinoma (Panc-1). To this end, 0.5×10^6 human malignant cells were treated with various concentrations (0.001-1000 nM) for 96 hours of FK866 or the compounds according to the present invention. Subsequently cell viability was determined using either sulforhodamine assays as described in Caffa I, et al. (Oncotarget. 2015 May 20; 6(14):11820-32) or MTT assays. Sulforhodamine B is a dye able that binds to cellular proteins. […] For MTT assays, human malignant cells were plated in triplicate on 96-well plates and treated as mentioned above. After 96 hours of incubation, 15 μL of dye solution was added to each well and cells were incubated for an additional 4 hours. Stop solution (100 μL/well) was added for 1 hour and the absorbance was read at 570 nm on a spectrophotometer. To confirm whether the cytotoxicity exerted by these compounds involves programmed cell death, drug-induced cell death was evaluated using annexin V and 7AAD double staining as described by the manufacturer for assessing apoptosis or autophagic-cell death using a Beckman Coulter Cytomics Gallios flow cytometer. Dead cells were identified as annexinV+ and/or 7AAD+. GraphPad Prism version 7.00 (GraphPad Software, San Diego, Calif.) was used for IC50 calculation.

Data set [2] in a line: Pharmacokinetics after intraperitoneal administration in female SCID mice (plasma, LC-MS/MS, non compartmental analysis). The format is in vivo. The note with it: 20 mg/kg IP. Here is the method: The pharmacokinetics parameters of FK866, FE1199, VAL22-2 and MPM07 were determined following intraperitoneal administration (IP) in female SCID mice.
• SCID (Severe Combined ImmunoDeficiency) mice female total 144 • 25 mM in DMSO (dimethylsulfoxyde) of each test drug • Saline solution (0.9%)
Test drugs were dissolved in saline solution at 20 mg/ml. All dosing solutions were controlled by HPLC (High-Performance Liquid Chromatography) analysis. Mouse weight is estimated around 20 g.
Three mice per time point were used in each group.
Blood samples were collected on citrate at 10 min, 30 min, 1 h, 2 h, 4 h, 6 h, 8 h and 24 hours after drug administration. Following centrifugation, resulting plasma was stored at […] pending bioanalysis. Samples were analyzed by LC-MS/MS (Liquid chromatography tandem-mass spectrometry); the lower limit of quantification achieved was between 3 and 12 nM depending on drug. Non compartmental pharmacokinetic analysis was performed on plasma concentration data.

On to `COc1ccc(C(=O)N2CCC(CCCCNC(=O)/C=C/c3cccnc3)CC2)c(OC)c1` [FEI-56, (E)-N-(4-(1-(2,4-Dimethoxybenzoyl)piperidin-4-yl)butyl)-3-(pyridin-3-yl)acrylamide], for which half-maximal inhibition in data set [1] (IC50) was put at 3 nM.
In data set [1], `COc1cccc(OC)c1C(=O)N1CCC(CCCCNC(=O)/C=C/c2cccnc2)CC1` [FEI-58, (E)-N-(4-(1-(2,6-Dimethoxybenzoyl)piperidin-4-yl)butyl)-3-(pyridin-3-yl)acrylamide] registered an IC50 of 0.6 nM.
Same read-out and setting: with `COc1cc(OC)c(C(=O)N2CCC(CCCCNC(=O)/C=C/c3cccnc3)CC2)c(OC)c1` [FEI-62, (E)-3-(Pyridin-3-yl)-N-(4-(1-(2,4,6-trimethoxybenzoyl)piperidin-4-yl)butyl)acrylamide] the figure was 1 nM; with `COc1ccoc1C(=O)N1CCC(CCCCNC(=O)/C=C/c2cccnc2)CC1` [FEI-71, (E)-N-(4-(1-(3-Methoxyfuran-2-carbonyl)piperidin-4-yl)butyl)-3-(pyridin-3-yl)acrylamide], 7 nM.
In turn, `O=C(/C=C/c1cccnc1)NCCCCC1CCN(C(=O)c2ccno2)CC1` [FEI-74, (E)-N-(4-(1-(Isoxazole-5-carbonyl)piperidin-4-yl)butyl)-3-(pyridin-3-yl)acrylamide] had an IC50 in data set [1] of 5 nM.
As for `COc1cc(C=O)cc(OC)c1C(=O)N1CCC(CCCCNC(=O)/C=C/c2cccnc2)CC1` [FEI-75, (E)-N-(4-(1-(4-Formyl-2,6-dimethoxybenzoyl)piperidin-4-yl)butyl)-3-(pyridin-3-yl)acrylamide], the IC50 in data set [1] came to 2 nM.
As for `O=C(/C=C/c1cccnc1)NC/C=C/CC1CCN(C(=O)c2ccccc2)CC1` [FEI-80, (E)-N-((E)-4-(1-Benzoylpiperidin-4-yl)but-2-en-1-yl)-3-(pyridin-3-yl)acrylamide], the IC50 in data set [1] was 9 nM.
`COc1cccc(OC)c1C(=O)N1CCC(C/C=C/CNC(=O)/C=C/c2cccnc2)CC1` [FEI-81, (E)-N-((E)-4-(1-(2,6-Dimethoxybenzoyl)piperidin-4-yl)but-2-en-1-yl)-3-(pyridin-3-yl)acrylamide] had an IC50 in data set [1] of 2.3 nM.
In turn, `COc1cc(OC)c(C(=O)N2CCC(C/C=C/CNC(=O)/C=C/c3cccnc3)CC2)c(OC)c1` [FEI-82, (E)-3-(Pyridin-3-yl)-N-((E)-4-(1-(2,4,6-trimethoxybenzoyl)piperidin-4-yl)but-2-en-1-yl)acrylamide] gave an IC50 in data set [1] of 0.4 nM.
`O=C(/C=C/c1cccnc1)NC/C=C/CC1CCN(C(=O)c2ccco2)CC1` [FEI-83, (E)-N-((E)-4-(1-(Furan-2-carbonyl)piperidin-4-yl)but-2-en-1-yl)-3-(pyridin-3-yl)acrylamide] showed an IC50 in data set [1] of 15 nM.
On the same count and under the same terms, with `O=C(/C=C/c1cccnc1)NC/C=C/CC1CCN(C(=O)c2cccs2)CC1` [FEI-85, (E)-3-(Pyridin-3-yl)-N-((E)-4-(1-(thiophene-2-carbonyl)piperidin-4-yl)but-2-en-1-yl)acrylamide] the figure was 2 nM; with `N#C/N=C(\NCCCCC1CCN(C(=O)c2ccccc2)CC1)Nc1ccncc1` [FEI-154, (E)-1-(4-(1-Benzoylpiperidin-4-yl)butyl)-2-cyano-3-(pyridin-4-yl)guanidine], 3.9 nM; with `N#C/N=C(\NCCCCC1CCN(C(=O)c2ccco2)CC1)Nc1ccncc1` [FEI-158, (E)-2-Cyano-1-(4-(1-(furan-2-carbonyl)piperidin-4-yl)butyl)-3-(pyridin-4-yl)guanidine], 6.8 nM.
For the compound `N#C/N=C(\NCCCCC1CCN(C(=O)c2ccco2)CC1)Nc1ccc(F)nc1` [FEI-170, (E)-2-Cyano-1-(6-fluoropyridin-3-yl)-3-(4-(1-(furan-2-carbonyl)piperidin-4-yl)butyl)guanidine], the IC50 in data set [1] turned out to be 18 nM.
The compound `N#C/N=C(\NCCCCC1CCN(C(=O)c2cccs2)CC1)Nc1ccc(F)nc1` [FEI-171, (E)-2-Cyano-1-(6-fluoropyridin-3-yl)-3-(4-(1-(thiophene-2-carbonyl)piperidin-4-yl)butyl)guanidine] gave an IC50 in data set [1] of 12 nM.
In data set [1], `N#C/N=C(\NCCCCCC1CCN(C(=O)c2ccccc2)CC1)Nc1ccncc1` [FEI-190, (E)-1-(5-(1-Benzoylpiperidin-4-yl)pentyl)-2-cyano-3-(pyridin-4-yl)guanidine] yielded an IC50 of 2.6 nM.
In turn, `N#C/N=C(\NCCCCCC1CCN(C(=O)c2ccco2)CC1)Nc1ccncc1` [FEI-191, (E)-2-Cyano-1-(5-(1-(furan-2-carbonyl)piperidin-4-yl)pentyl)-3-(pyridin-4-yl)guanidine] yielded a 50% inhibitory concentration (IC50) in data set [1] of 1.9 nM.
In data set [1], `N#C/N=C(\NCCCCCC1CCN(C(=O)c2cccs2)CC1)Nc1ccncc1` [FEI-192, (E)-2-Cyano-1-(pyridin-4-yl)-3-(5-(1-(thiophene-2-carbonyl)piperidin-4-yl)pentyl)guanidine] gave an IC50 of 2.3 nM.
On to `COc1cccc(OC)c1C(=O)N1CCC(CCCCCN/C(=N\C#N)Nc2ccncc2)CC1` [FEI-193, (E)-2-Cyano-1-(5-(1-(2,6-dimethoxybenzoyl)piperidin-4-yl)pentyl)-3-(pyridin-4-yl)guanidine], for which, in data set [1], the IC50 was determined as 4.8 nM.
The same measure, in the same setting: with `N#C/N=C(\NC/C=C/CCC1CCN(C(=O)c2ccccc2)CC1)Nc1cccnc1` [FEI-194, (E)-1-((E)-5-(1-Benzoylpiperidin-4-yl)pent-2-en-1-yl)-2-cyano-3-(pyridin-3-yl)guanidine] the figure was 5 nM; with `N#C/N=C(\NC/C=C/CCC1CCN(C(=O)c2ccco2)CC1)Nc1cccnc1` [FEI-195, (E)-2-Cyano-1-((E)-5-(1-(furan-2-carbonyl)piperidin-4-yl)pent-2-en-1-yl)-3-(pyridin-3-yl)guanidine], 4.6 nM; with `N#C/N=C(\NC/C=C/CCC1CCN(C(=O)c2cccs2)CC1)Nc1cccnc1` [FEI-196, (E)-2-Cyano-1-(pyridin-3-yl)-3-((E)-5-(1-(thiophene-2-carbonyl)piperidin-4-yl)pent-2-en-1-yl)guanidine], 5.9 nM.
Compound `N#C/N=C(\NC/C=C/CCC1CCN(C(=O)c2ccccc2)CC1)Nc1ccncc1` [FEI-198, (E)-1-((E)-5-(1-Benzoylpiperidin-4-yl)pent-2-en-1-yl)-2-cyano-3-(pyridin-4-yl)guanidine] displayed an IC50 in data set [1] of 5 nM.
Regarding `N#C/N=C(\NC/C=C/CCC1CCN(C(=O)c2cccs2)CC1)Nc1ccncc1` [FEI-200, (E)-2-Cyano-1-(pyridin-4-yl)-3-((E)-5-(1-(thiophene-2-carbonyl)piperidin-4-yl)pent-2-en-1-yl)guanidine], the IC50 in data set [1] turned out to be 2.4 nM.
In data set [1], `COc1cccc(OC)c1C(=O)N1CCC(CCCCNC(=O)Nc2ccncc2)CC1` [FEI-209, 1-(4-(1-(2,6-Dimethoxybenzoyl)piperidin-4-yl)butyl)-3-(pyridin-4-yl)urea] returned an IC50 of 8.2 nM.
In turn, `COc1cccc(OC)c1C(=O)N1CCC(CCCCNC(=O)/C=C/c2cccnc2F)CC1` [MPM-08] returned an IC50 in data set [1] of 6 nM.
The compound `COc1cccc(OC)c1C(=O)N1CCC(CCCCNC(=O)/C=C/c2ccc(F)nc2F)CC1` [MPM-09] showed an IC50 in data set [1] of 2 nM.
Consider `COc1cc(C=O)cc(OC)c1C(=O)N1CCC(CCCCNC(=O)/C=C/c2cccnc2F)CC1` [MPM-13], for which the IC50 in data set [1] is 15.5 nM.
The compound `CCCn1cc(C=O)c(C(=O)N2CCC(CCCCNC(=O)/C=C/c3cccnc3F)CC2)c1C` [MPM-14, (E)-3-(2-fluoropyridin-3-yl)-N-(4-(1-(4-formyl-2-methyl-1-propyl-1H-pyrrole-3-carbonyl)piperidin-4-yl)butyl)acrylamide] gave an IC50 in data set [1] of 7.54 nM.
In data set [1], `O=C(/C=C/c1ccc(F)nc1F)NCCCCC1CCN(C(=O)c2ccccc2)CC1` [PER-201, (E)-N-(4-(1-benzoylpiperidin-4-yl)butyl)-3-(2,6-difluoropyridin-3-yl)acrylamide] registered an IC50 of 14 nM.
The compound `O=C(/C=C/c1ccc(F)nc1F)NCCCCC1CCN(C(=O)c2cccs2)CC1` [PER-202] registered an IC50 in data set [1] of 5 nM.
As for `O=C(/C=C/c1cccnc1F)NCCCCC1CCN(C(=O)c2ccccc2)CC1` [VAL22-2, (E)-N-(4-(1-benzoylpiperidin-4-yl)butyl)-3-(2-fluoropyridin-3-yl)acrylamide], in data set [2] (CL calculated as dose/AUC), the CL is listed as 23.6 mL/h. For the same compound, the “Percentage of extrapolated AUC from T6 h to infinity” value in data set [2] (plasma, relative to AUC0-inf) is 1.4%. Besides, in data set [2] (plasma, t½α (0 -> 6 h)), the T1/2α is 27.6 min. The T1/2β in data set [2] (plasma, t½β (6 -> 24 h)) was determined as 515 min. For the same compound, the “half-lives in the second phase (6 h→24 h) compared with FK866” value in data set [2] (plasma, versus FK866) is “improved and longer half-lives”. Moreover, in data set [2] (mouse, plasma), the Cmax is 16900 ng/mL and the Tmax turned out to be 10 min. In addition, the AUC(0-inf) in data set [2] (mouse, plasma, log-trapezoidal rule, extrapolated to infinity) is 8470 ng·h/mL. In data set [2] (mouse, plasma, read-out: AUC0-8 h), the AUC(0-t) worked out at 8400 ng·h/mL.
